Like-named read-outs stand apart in the source and are kept apart here.
Legend:
[1] = tested on: MCF-7 breast cancer cells; test: Cytotoxicity (cell death, propidium iodide) in MCF-7 cells; format: cell-based; settings: Homo sapiens, MCF7, dose-response 0.32-320 μM, read-out: Cytotoxicity EC50
[2] = Cytotoxicity (cell death, propidium iodide) in MCF-10A cells; format: cell-based; settings: human, MCF-10A non-cancerous breast cells
Procedure: To assess the selectivity of cytotoxicity for cancer cells, all drugs and compounds were screened against MCF-10A, non-cancerous breast cells.
(§1) Cells were incubated for 15 minutes at 37° C.

[3] = tested on: triple-negative MDA-MB-231 breast cancer cells
[4] = tested on: MCF-10A non-cancerous breast cells; test: Growth inhibition of MCF-10A cells (negative control line); format: cell-based; settings: Homo sapiens, dose-response 0.32-320 μM
Procedure: (§2) Olaparib was chosen because it is one of a few FDA-approved chemotherapeutics for triple-negative breast cancer.
as §1

[5] = tested on: SK-BR-3 (ER−/PR−/HER2+) breast cancer cells; test: Growth inhibition of SK-BR-3 cells; format: cell-based; settings: Homo sapiens, dose-response 0.32-320 μM
Procedure: as §2, §1

[6] = tested on: triple-negative MDA-MB-231 breast cancer cells; test: Growth inhibition of MDA-MB-231 cells; format: cell-based; settings: dose-response 0.32-320 μM; for IC50: Homo sapiens
Procedure: as §2, §1

[7] = tested on: triple-negative MDA-MB-231 breast cancer cells; test: cells; settings: Homo sapiens, read-out: Cytotoxicity EC50
[8] = tested on: MCF-7 (ER+/PR+/HER2−) breast cancer cells; test: Growth inhibition of MCF-7 cells (Hoechst 33342 fluorescence vs non-treated wells); format: cell-based; settings: Homo sapiens, dose-response 0.32-320 μM
Procedure: as §2, §1

[9] = tested on: SK-BR-3 breast cancer cells; test: Cytotoxicity (cell death, propidium iodide) in SK-BR-3 cells; format: cell-based; settings: for EC50: Homo sapiens, dose-response 0.32-320 μM

For `C=C(C[C@H](N)C(=O)O)C(=O)Nc1ccccc1` [Compound 3, (S)-2-amino-4-(phenylcarbamoyl) pent-4-enoic acid], which EC50 ([1]; MCF-7, 24 h exposure) is on record?
Its EC50 is 421 µM.

And the EC50 ([1]; MCF-7, 72 h exposure)?
The EC50 was 2 µM.

And the EC50 at 24 h ([2]; 24 h exposure)?
Its EC50 at 24 h is over 1000 µM.

And the EC50 at 24 h ([2]; head prints 24 h)?
The EC50 at 24 h was over 1000 µM.

What about the “cytotoxic EC50 compared with positive controls” value [3] of the same molecule?
The value was “significantly greater than tamoxifen”.

And the IC50 ([4]; 24 h exposure)?
The IC50 was over 1000 µM.

And the IC50 ([4]; 72 h exposure)?
The IC50 was over 1000 µM.

What about the IC50 ([5]; SK-BR-3, 24 h exposure) of the same molecule?
Its IC50 is 36.9 µM.

And the IC50 ([5]; SK-BR-3, 72 h exposure)?
The IC50 was 1.7 µM.

What about the IC50 ([6]; MDA-MB-231, 24 h exposure) of the same molecule?
The IC50 was 777 µM.

What about the IC50 ([6]; MDA-MB-231, 72 h exposure) of the same molecule?
Its IC50 is 814 µM.

And the “Growth Inhibition IC50” value ([6]; MDA-MB-231, 72 h exposure)?
The value was “poorer potency than olaparib”.

What about the EC50 ([7]; MDA-MB-231, 24 h) of the same molecule?
The EC50 was 541 µM.

And the EC50 ([7]; MDA-MB-231, 72 h)?
The EC50 was 409 µM.

What about the IC50 ([8]; MCF7, 24 h, MCF-7, 24 h exposure) of the same molecule?
The IC50 was over 1000 µM.

And the IC50 ([8]; MCF7, 72 h, MCF-7, 72 h exposure)?
The IC50 was 250 µM.

And the EC50 ([9]; SK-BR-3, 24 h exposure)?
Its EC50 is 0.2 µM.

What about the EC50 ([9]; SK-BR-3, 72 h exposure) of the same molecule?
The EC50 was over 1000 µM.

What about the “cytotoxicity EC50” value ([9]; SK-BR-3, 72 h / after the first 24 h) of the same molecule?
The value was “much reduced toxicity”.

— US12435032B2, “L-γ-methyleneglutamine compounds and methods of use” (University of Mississippi, priority 2019, dated 2025)
